From ChEMBL document CHEMBL1671662, “In vitro activities of telavancin and six comparator agents against anaerobic bacterial isolates” (2009)
Converted amounts (≈) assume the structure as drawn.

Assays:
Streptococcus anginosus = assay: Antibacterial activity against Streptococcus anginosus by CLSI M11-A6 agar dilution method; assay type: functional
Finegoldia magna = assay: Antibacterial activity against Finegoldia magna by CLSI M11-A6 agar dilution method; assay type: functional
[1] = tested on: Coprobacillus cateniformis; assay: Antibacterial activity against Coprobacillus cateniformis by CLSI M11-A6 agar dilution method; assay type: functional
Clostridium hathewayi = assay: Antibacterial activity against Clostridium hathewayi by CLSI M11-A6 agar dilution method; assay type: functional; conditions: Hungatella hathewayi
Prevotella intermedia = assay: Antibacterial activity against Prevotella P intermedia by CLSI M11-A6 agar dilution method; assay type: functional
Collinsella aerofaciens = assay: Antibacterial activity against Colinsella aerofaciens by CLSI M11-A6 agar dilution method; assay type: functional
Coriobacterium = assay: Antibacterial activity against […] by CLSI M11-A6 agar dilution method; assay type: functional
Bifidobacterium longum = assay: Antibacterial activity against Bifidobacterium longum by CLSI M11-A6 agar dilution method; assay type: functional
Ruminococcus lactaris = assay: Antibacterial activity against Ruminococcus lactaris by CLSI M11-A6 agar dilution method; assay type: functional
[2] = tested on: Bifidobacterium pseudolongum; assay: Antibacterial activity against Bifidobacterium pseudolongum by CLSI M11-A6 agar dilution method; assay type: functional
[3] = tested on: Bacteroides thetaiotaomicron; assay: Antibacterial activity against Bacteroides thetaiotaomicron by CLSI M11-A6 agar dilution method; assay type: functional
Ruminococcus torques = assay: Antibacterial activity against Ruminococcus torques by CLSI M11-A6 agar dilution method; assay type: functional; conditions: Mediterraneibacter torques
Clostridium disporicum = assay: Antibacterial activity against Clostridium disporicum by CLSI M11-A6 agar dilution method; assay type: functional
Clostridium bartlettii = assay: Antibacterial activity against Clostridium bartlettii by CLSI M11-A6 agar dilution method; assay type: functional; conditions: Intestinibacter bartlettii
Prevotella bivia = assay: Antibacterial activity against Prevotella bivia by CLSI M11-A6 agar dilution method; assay type: functional
Blautia luti = assay: Antibacterial activity against Ruminococcus luti by CLSI M11-A6 agar dilution method; assay type: functional
[4] = tested on: Clostridium paraputrificum; assay: Antibacterial activity against Clostridium paraputrificum by CLSI M11-A6 agar dilution method; assay type: functional
Prevotella corporis = assay: Antibacterial activity against Prevotella corporis by CLSI M11-A6 agar dilution method; assay type: functional
[5] = tested on: Catenibacterium mitsuokai; assay: Antibacterial activity against Catenibacterium mitsuokai by CLSI M11-A6 agar dilution method; assay type: functional
[6] = tested on: Streptococcus intermedius; assay: Antibacterial activity against Streptococcus intermedius by CLSI M11-A6 agar dilution method; assay type: functional
Prevotella oris = assay: Antibacterial activity against Prevotella oris by CLSI M11-A6 agar dilution method; assay type: functional; conditions: Segatella oris
Flavonifractor plautii = assay: Antibacterial activity against Clostridium orbiscindens by CLSI M11-A6 agar dilution method; assay type: functional
Clostridium butyricum = assay: Antibacterial activity against Clostridium butyricum by CLSI M11-A6 agar dilution method; assay type: functional
Clostridium sp. = assay: Antibacterial activity against Clostridium sp. by CLSI M11-A6 agar dilution method; assay type: functional
Prevotella nigrescens = assay: Antibacterial activity against Prevotella nigrescens by CLSI M11-A6 agar dilution method; assay type: functional
Odoribacter splanchnicus = assay: Antibacterial activity against Bacteroides splanchnicus by CLSI M11-A6 agar dilution method; assay type: functional
Prevotella buccae = assay: Antibacterial activity against Prevotella buccae by CLSI M11-A6 agar dilution method; assay type: functional; conditions: Segatella buccae
Fusobacterium varium = assay: Antibacterial activity against Fusobacterium varium by CLSI M11-A6 agar dilution method; assay type: functional
Clostridium sporogenes = assay: Antibacterial activity against Clostridium sporogenes by CLSI M11-A6 agar dilution method; assay type: functional
Parabacteroides merdae = assay: Antibacterial activity against Parabacteroides merdae by CLSI M11-A6 agar dilution method; assay type: functional
[7] = tested on: Peptoniphilus asaccharolyticus; assay: Antibacterial activity against Peptoniphilus asaccharolyticus by CLSI M11-A6 agar dilution method; assay type: functional
Clostridium spiroforme = assay: Antibacterial activity against Clostridium spiroforme by CLSI M11-A6 agar dilution method; assay type: functional; conditions: Thomasclavelia spiroformis
Clostridioides difficile = assay: Antibacterial activity against Clostridium difficile by CLSI M11-A6 agar dilution method; assay type: functional
Clostridium subterminale = assay: Antibacterial activity against Clostridium subterminale by CLSI M11-A6 agar dilution method; assay type: functional
[8] = tested on: Bifidobacterium adolescentis; assay: Antibacterial activity against Bifidobacterium adolescentis by CLSI M11-A6 agar dilution method; assay type: functional
Ruminococcus obeum = assay: Antibacterial activity against Ruminococcus obeum by CLSI M11-A6 agar dilution method; assay type: functional; conditions: Blautia obeum
[9] = tested on: Paeniclostridium sordellii; assay: Antibacterial activity against Clostridium sordellii by CLSI M11-A6 agar dilution method; assay type: functional; conditions: Paraclostridium sordellii
Clostridium perfringens = assay: Antibacterial activity against Clostridium perfringens by CLSI M11-A6 agar dilution method; assay type: functional
Anaerococcus tetradius = assay: Antibacterial activity against Anaerococcus tetradius by CLSI M11-A6 agar dilution method; assay type: functional
[10] = tested on: Clostridium sporosphaeroides; assay: Antibacterial activity against Clostridium sporosphaeroides by CLSI M11-A6 agar dilution method; assay type: functional; conditions: Faecalispora sporosphaeroides
[11] = Antibacterial activity against Bifidobacterium infantis by CLSI M11-A6 agar dilution method; assay type: functional, Bifidobacterium longum subsp. infantis; conditions: Bifidobacterium longum
Ruminococcus albus = assay: Antibacterial activity against Ruminococcus albus by CLSI M11-A6 agar dilution method; assay type: functional; conditions: Hominimerdicola alba
[12] = tested on: Clostridium celerecrescens; assay: Antibacterial activity against Clostridium celerecrescens by CLSI M11-A6 agar dilution method; assay type: functional; conditions: Lacrimispora celerecrescens

## CCC[C@@H]1C[C@@H](C(=O)N[C@@H]([C@H]2O[C@H](SC)[C@H](O)[C@@H](O)[C@H]2O)[C@H](C)Cl)N(C)C1 [CLINDAMYCIN]
Streptococcus anginosus
  MIC90: 0.5 µg/mL (≈ 1.18 µM)
Finegoldia magna
  MIC90: > 128 µg/mL
[1]
  MIC50: ≤ 0.12 µg/mL
  MIC90: 1 µg/mL (≈ 2.35 µM)
Clostridium hathewayi
  MIC50: 0.5 µg/mL (≈ 1.18 µM)
  MIC90: 2 µg/mL (≈ 4.71 µM)
Prevotella intermedia
  MIC: ≤ 0.12 µg/mL
  MIC50: ≤ 0.12 µg/mL
  MIC90: ≤ 0.12 µg/mL
Collinsella aerofaciens
  MIC50: ≤ 0.12 µg/mL
  MIC90: 1 µg/mL (≈ 2.35 µM)
Coriobacterium
  MIC50: ≤ 0.12 µg/mL
  MIC90: 1 µg/mL (≈ 2.35 µM)
Bifidobacterium longum
  MIC50: ≤ 0.12 µg/mL
  MIC90: 1 µg/mL (≈ 2.35 µM)
Ruminococcus lactaris
  MIC50: ≤ 0.12 µg/mL
  MIC90: 2 µg/mL (≈ 4.71 µM)
[2]
  MIC50: ≤ 0.12 µg/mL
  MIC90: 1 µg/mL (≈ 2.35 µM)
[3]
  MIC50: 4 µg/mL (≈ 9.41 µM)
  MIC90: > 128 µg/mL
Ruminococcus torques
  MIC50: ≤ 0.12 µg/mL
  MIC90: 2 µg/mL (≈ 4.71 µM)
Clostridium disporicum
  MIC90: 4 µg/mL (≈ 9.41 µM)
Clostridium bartlettii
  MIC90: 4 µg/mL (≈ 9.41 µM)
Prevotella bivia
  MIC: ≤ 0.12 µg/mL
  MIC50: ≤ 0.12 µg/mL
  MIC90: ≤ 0.12 µg/mL
Blautia luti
  MIC50: ≤ 0.12 µg/mL
  MIC90: 2 µg/mL (≈ 4.71 µM)
[4]
  MIC90: 4 µg/mL (≈ 9.41 µM)
Prevotella corporis
  MIC: ≤ 0.12 µg/mL
  MIC50: ≤ 0.12 µg/mL
  MIC90: ≤ 0.12 µg/mL
[5]
  MIC50: ≤ 0.12 µg/mL
  MIC90: 1 µg/mL (≈ 2.35 µM)
[6]
  MIC90: 0.5 µg/mL (≈ 1.18 µM)
Prevotella oris
  MIC: ≤ 0.12 µg/mL
  MIC50: ≤ 0.12 µg/mL
  MIC90: ≤ 0.12 µg/mL
Flavonifractor plautii
  MIC90: 4 µg/mL (≈ 9.41 µM)
Clostridium butyricum
  MIC90: 4 µg/mL (≈ 9.41 µM)
Clostridium sp.
  MIC90: 4 µg/mL (≈ 9.41 µM)
Prevotella nigrescens
  MIC: ≤ 0.12 µg/mL
  MIC50: ≤ 0.12 µg/mL
  MIC90: ≤ 0.12 µg/mL
Odoribacter splanchnicus
  MIC50: ≤ 0.12 µg/mL
  MIC90: > 128 µg/mL
Prevotella buccae
  MIC: ≤ 0.12 µg/mL
  MIC50: ≤ 0.12 µg/mL
  MIC90: ≤ 0.12 µg/mL
Fusobacterium varium
  MIC50: 1 µg/mL (≈ 2.35 µM)
  MIC90: 32 µg/mL (≈ 75.3 µM)
Clostridium sporogenes
  MIC90: 4 µg/mL (≈ 9.41 µM)
Parabacteroides merdae
  MIC50: 2 µg/mL (≈ 4.71 µM)
  MIC90: 64 µg/mL (≈ 151 µM)
[7]
  MIC90: > 128 µg/mL
Clostridium spiroforme
  MIC90: 4 µg/mL (≈ 9.41 µM)
Clostridioides difficile
  MIC50: 4 µg/mL (≈ 9.41 µM)
  MIC90: 128 µg/mL (≈ 301 µM)
Clostridium subterminale
  MIC50: 0.5 µg/mL (≈ 1.18 µM)
  MIC90: 8 µg/mL (≈ 18.8 µM)
[8]
  MIC50: ≤ 0.12 µg/mL
  MIC90: 1 µg/mL (≈ 2.35 µM)
Ruminococcus obeum
  MIC50: ≤ 0.12 µg/mL
  MIC90: ≤ 0.12 µg/mL
[9]
  MIC90: 4 µg/mL (≈ 9.41 µM)
Clostridium perfringens
  MIC50: 0.5 µg/mL (≈ 1.18 µM)
  MIC90: 2 µg/mL (≈ 4.71 µM)
Anaerococcus tetradius
  MIC90: > 128 µg/mL
[10]
  MIC90: 4 µg/mL (≈ 9.41 µM)
[11]
  MIC50: ≤ 0.12 µg/mL
  MIC90: 1 µg/mL (≈ 2.35 µM)
Ruminococcus albus
  MIC50: ≤ 0.12 µg/mL
  MIC90: 2 µg/mL (≈ 4.71 µM)
[12]
  MIC90: 4 µg/mL (≈ 9.41 µM)
